From PMC11298695
Values after ≈ are worked out from the molar mass of the structure shown. Like-named read-outs stand apart in the source and are kept apart here.

How the values were obtained:
[1] = Powder dissolution (apparent solubility) in pH 6.8 phosphate buffer and water; format: physicochemical
Procedure: A Model 1,525 system (Waters Corporation, Milford MA, United States) equipped with a photodiode array (PDA) detector (Waters 2998, Milford MA, United States) and a SunFire C18 column (4.6 mm × 250 mm, 5 μm, Waters, Ireland) was used for HPLC analysis. The column temperature was maintained at 37°C and the autosampler temperature was room temperature. The mobile phase consisted of methanol and H2O (70:30, v/v) at a flow rate of 1.0 mL/min. The detection wavelength of the UV detector was 248 nm and the injection volume of sample was 20 µL. The standard curve ranged from 10 μg/mL to 0.078125 μg/mL. […] The powders were sieved using standard sieves to control particle size within 75–150 µm. […] The filtrates were diluted to an appropriate concentration, and analyzed using HPLC.

[2] = Environmental pH of dissolution media; format: physicochemical
in vitro = format: cell-based; settings: human, Caco-2 cells, read-out: cell viability; for viability at 24 h: Caco-2, 24 h
Caco-2 cells = test: in vitro; format: cell-based; settings: Caco-2, CCK-8
[3] = Caco-2 cell monolayer transport of DAI (AP to BL); format: in vitro ADME; settings: human, Caco-2, DAI 50 μg/mL, read-out: apparent permeability coefficient (P app)
Procedure: (§1) Caco-2 cells were seeded on 12-well Transwell® (Corning Costar, Lowell, MA, United States) culture plates (pore size 0.4 µm, surface area 1.12 cm^2) at 5 × 10^4 cells/mL. On the 3rd, 5th, 7th, 13th, 18th, and 21st days of culture, the transepithelial electrical resistance (TEER) value was measured using an EVOM2 transmembrane resistance meter (Millipore, United States) to evaluate the integrity of the Caco-2 cell monolayer.
(§2) After washing the Caco-2 cell monolayer twice with prewarmed Hank’s Balanced Salt Solution (HBSS), the transport experiments were performed by adding the final concentration of DAI (0.5 mL) to the apical side (AP) as the donor chamber, and adding HBSS (1.5 mL) to the basolateral side (BL) as the receiving chamber. The plate was incubated at 37°C and 200 μL of sample was collected from the BL side at 30, 45, 60, 90, and 120 min. […]
(§3) The apparent permeability coefficient (P app ) for DAI was calculated using Eq. 3 ([Ndayishimiye et al., 2022]). Papp=dQ/dt∗1/A∗C0 cm/s (3) where Q refers to the cumulative transport amount, i.e., the total drug quantity on the receiving side (μg); dQ/dt represents the transport rate of the drug through the Caco-2 cell monolayer (μg/s); A denotes the chamber membrane area (1.12 cm^2); and C0 is the initial concentration of DAI on the AP side (μg/mL).

Caco-2 cell monolayer = Caco-2 cell monolayer transport of DAI (AP to BL); format: in vitro ADME; settings: 120 min
Procedure: as §1, §2, §3

in vivo = settings: male, dog, plasma, beagle dogs, oral, 40 mg/kg
[4] = ref Nan et al., 2014, Panizzon et al., 2019; cited from earlier work
[5] = no reference given; cited from earlier work
[6] = Efflux function of the Caco-2 cell model with Rhodamine 123; format: in vitro ADME; settings: human

O=c1c(-c2ccc(O)cc2)coc2cc(O)ccc12 [DAI, 4′,7-dihydroxyisoflavone]
peak time of Smax ([1]; pH 6.8 buffer): 45 min | solubility at 45 min ([1]; pH 6.8 phosphate buffer, aqueous buffer, thermodynamic from solid, pH 6.8 buffer, 37°C, powder dissolution, read-out: maximum apparent solubility (Smax)): 1.01 ± 0.06 µg/mL (≈ 3.97 µM) | time to reach Smax ([1]; water): ≤ 240 min | solubility at 240 min ([1]; water, 37 °C, water, thermodynamic from solid, read-out: maximum apparent solubility (Smax)): 0.48 ± 0.09 µg/mL (≈ 1.89 µM) | environmental pH ([2]; medium pH6.8 buffer): 6.74 ± 0.03 | environmental pH ([2]; medium water (pH 7.0)): 3.80 ± 0.06 | viability at 24 h (in vitro; 1st of five listed concentrations (not assigned)): 87% | viability at 24 h (in vitro; 2nd of five listed concentrations (not assigned)): 88.1% | viability at 24 h (in vitro; 3rd of five listed concentrations (not assigned)): 94.7% | viability at 24 h (in vitro; 4th of five listed concentrations (not assigned)): 98% | viability at 24 h (in vitro; 5th of five listed concentrations (not assigned)): 94% | effect on Caco-2 cells (Caco-2 cells): dose-dependent inhibitory effect | Papp at 120 min, 50 μg/mL [3]: 22.8 ± 1.6 ×10⁻⁶ cm/s | cumulative transport of DAI (Caco-2 cell monolayer): 9.19 ± 0.65 µg | Tmax (in vivo): 49.8 ± 8.4 min | Cmax (in vivo): 210 ± 40 ng/mL | AUC (in vivo; read-out: AUC0∼24): 1740 ± 150 ng·h/mL | water solubility [4]: 0.31 µg/mL (≈ 1.22 µM) | pK a [5]: 7.43

COC(=O)c1ccccc1-c1c2ccc(=N)cc-2oc2cc(N)ccc12 [Rhodamine 123]
Papp A→B at 120 min ([6]; 120 min): 0.179 ± 0.061 ×10⁻⁶ cm/s | Papp B→A at 120 min ([6]; 120 min): 0.852 ± 0.016 ×10⁻⁶ cm/s | efflux ratio at 120 min ([6]; Papp BL→AP / Papp AP→BL, read-out: Efflux ratio (ER)): 4.76

C1CNCCN1 [PIP, Piperazine]
viability at 24 h, 16.94 μg/mL (in vitro; Caco-2, PIP 16.94 μg/mL): 85.2%
